Values quoted from earlier work as cited in patent publication US20060106003A1, “Combination of a macrolide t-cell immunomodulator and a calciferol for the treatment of skin diseases or of inflammatory bowel disease” (priority 2003, published 2006).

Tested on: allogeneic kidney transplantation
Details: rat, oral administration; suppression of systemic immune response

C=CC[C@@H]1/C=C(\C)C[C@H](C)C[C@H](OC)[C@H]2O[C@@](O)(C(=O)C(=O)N3CCCC[C@H]3C(=O)O[C@H](/C(C)=C/[C@@H]3CC[C@@H](O)[C@H](OC)C3)[C@H](C)[C@@H](O)CC1=O)[C@H](C)C[C@@H]2OC [tacrolimus]
minimum effective dose (MED): 14 mg/kg
